Test results: ChEMBL document CHEMBL3885861, “Open TG-GATES”

Organism: Rattus norvegicus
Assay: Open TG-GATES - Regimen: Single
Assay type: toxicity, organism-based, Sprague-Dawley
Parameters: regimen Single, gender Male, age 6 weeks
Conditions: in vivo, po, 0 mg/kg, route gavage, dose level Control; for APTT / Bas / Eos / Fbg / Hb / Ht / Lym / MCHC / MCV / Mono / Neu / PT / Plat / RBC / Ret / WBC: tissue Blood; for KIDNEY_L / KIDNEY_R / KIDNEY_TOTAL: tissue Kidney; for LIVER: tissue Liver; for ALP / ALT / AST / BUN / CRE / DBIL / GLC / IP / K / LDH / Na / PL / RALB / TBIL / TC / TG / TP / gamma-GTP: tissue Plasma

Compound: C#C[C@]1(O)CC[C@H]2[C@@H]3CCC4=Cc5oncc5C[C@]4(C)[C@H]3CC[C@@]21C [DANAZOL]
- TERMINAL_BW (3 h): 212.9 g
- APTT (3 h): 23 s
- Bas (3 h): 0%
- Eos (3 h): 1%
- Fbg (3 h): 292.6 mg/dL
- Hb (3 h): 13.2 g/dL
- Ht (3 h): 40%
- Lym (3 h): 77.2%
- MCHC (3 h): 33.1%
- MCV (3 h): 62.5 fL
- Mono (3 h): 2.4%
- Neu (3 h): 19.6%
- PT (3 h): 15.8 s
- Plat (3 h): 111.7 x10_4/uL
- RBC (3 h): 641.4 x10_4/ul
- Ret (3 h): 7%
- WBC (3 h): 76.3 x10_2/uL
- KIDNEY_L (3 h): 0.9 g
- KIDNEY_R (3 h): 0.9 g
- KIDNEY_TOTAL (3 h): 1.9 g
- LIVER (3 h): 10.1 g
- ALP (3 h): 1527.4 IU/L
- ALT (3 h): 41.8 IU/L
- AST (3 h): 78.2 IU/L
- BUN (3 h): 14.2 mg/dL
- CRE (3 h): 0.1 mg/dL
- DBIL (3 h): 0 mg/dL
- GLC (3 h): 187.6 mg/dL
- IP (3 h): 7.9 mg/dL
- K (3 h): 4.1 meq/L
- LDH (3 h): 204.4 IU/L
- Na (3 h): 142.8 meq/L
- PL (3 h): 131.8 mg/dL
- RALB (3 h): 3 g/dL
- TBIL (3 h): 0.01 mg/dL
- TC (3 h): 76.8 mg/dL
- TG (3 h): 70.8 mg/dL
- TP (3 h): 5.5 g/dL
- gamma-GTP (3 h): 2 IU/L
- TERMINAL_BW (6 h): 212.9 g
- APTT (6 h): 23.5 s
- Bas (6 h): 0%
- Eos (6 h): 1%
- Fbg (6 h): 300.6 mg/dL
- Hb (6 h): 13.1 g/dL
- Ht (6 h): 39.8%
- Lym (6 h): 81.2%
- MCHC (6 h): 32.8%
- MCV (6 h): 63 fL
- Mono (6 h): 2.2%
- Neu (6 h): 14.8%
- PT (6 h): 16.1 s
- Plat (6 h): 114.9 x10_4/uL
- RBC (6 h): 632 x10_4/ul
- Ret (6 h): 7.2%
- WBC (6 h): 105 x10_2/uL
- KIDNEY_L (6 h): 0.9 g
- KIDNEY_R (6 h): 1 g
- KIDNEY_TOTAL (6 h): 1.9 g
- LIVER (6 h): 9.1 g
- ALP (6 h): 1276.8 IU/L
- ALT (6 h): 39.4 IU/L
- AST (6 h): 73.4 IU/L
- BUN (6 h): 9.2 mg/dL
- CRE (6 h): 0.1 mg/dL
- DBIL (6 h): 0 mg/dL
- GLC (6 h): 182 mg/dL
- IP (6 h): 9 mg/dL
- K (6 h): 4.3 meq/L
- LDH (6 h): 168.6 IU/L
- Na (6 h): 141 meq/L
- PL (6 h): 118.2 mg/dL
- RALB (6 h): 3 g/dL
- TBIL (6 h): 0.02 mg/dL
- TC (6 h): 65.4 mg/dL
- TG (6 h): 49.4 mg/dL
- TP (6 h): 5.3 g/dL
- gamma-GTP (6 h): 1.4 IU/L
- TERMINAL_BW (9 h): 209.9 g
- APTT (9 h): 22.7 s
- Bas (9 h): 0%
- Eos (9 h): 0.2%
- Fbg (9 h): 295.4 mg/dL
- Hb (9 h): 13.3 g/dL
- Ht (9 h): 40.9%
- Lym (9 h): 83%
- MCHC (9 h): 32.5%
- MCV (9 h): 64 fL
- Mono (9 h): 2%
- Neu (9 h): 13.6%
- PT (9 h): 16.3 s
- Plat (9 h): 114.3 x10_4/uL
- RBC (9 h): 639.2 x10_4/ul
- Ret (9 h): 7.6%
- WBC (9 h): 87.3 x10_2/uL
- KIDNEY_L (9 h): 1 g
- KIDNEY_R (9 h): 1 g
- KIDNEY_TOTAL (9 h): 2 g
- LIVER (9 h): 9.1 g
- ALP (9 h): 1266 IU/L
- ALT (9 h): 33.2 IU/L
- AST (9 h): 63.6 IU/L
- BUN (9 h): 11.2 mg/dL
- CRE (9 h): 0.1 mg/dL
- DBIL (9 h): 0 mg/dL
- GLC (9 h): 199.8 mg/dL
- IP (9 h): 10.1 mg/dL
- K (9 h): 4.2 meq/L
- LDH (9 h): 144.2 IU/L
- Na (9 h): 141.8 meq/L
- PL (9 h): 124 mg/dL
- RALB (9 h): 2.9 g/dL
- TBIL (9 h): 0.016 mg/dL
- TC (9 h): 69.8 mg/dL
- TG (9 h): 54.8 mg/dL
- TP (9 h): 5.4 g/dL
- gamma-GTP (9 h): 1.2 IU/L
- TERMINAL_BW (24 h): 231.9 g
- APTT (24 h): 23.6 s
- Bas (24 h): 0%
- Eos (24 h): 0.8%
- Fbg (24 h): 281 mg/dL
- Hb (24 h): 13.3 g/dL
- Ht (24 h): 40.2%
- Lym (24 h): 81.4%
- MCHC (24 h): 32.9%
- MCV (24 h): 63.2 fL
- Mono (24 h): 2.2%
- Neu (24 h): 14.8%
- PT (24 h): 15.7 s
- Plat (24 h): 114.7 x10_4/uL
- RBC (24 h): 637.4 x10_4/ul
- Ret (24 h): 7.3%
- WBC (24 h): 102.5 x10_2/uL
- KIDNEY_L (24 h): 1 g
- KIDNEY_R (24 h): 1 g
- KIDNEY_TOTAL (24 h): 2.1 g
- LIVER (24 h): 11.3 g
- ALP (24 h): 1604 IU/L
- ALT (24 h): 48.2 IU/L
- AST (24 h): 74.8 IU/L
- BUN (24 h): 18.6 mg/dL
- CRE (24 h): 0.1 mg/dL
- DBIL (24 h): 0 mg/dL
- GLC (24 h): 197.8 mg/dL
- IP (24 h): 7.8 mg/dL
- K (24 h): 4.2 meq/L
- LDH (24 h): 173.8 IU/L
- Na (24 h): 142.2 meq/L
- PL (24 h): 140 mg/dL
- RALB (24 h): 3 g/dL
- TBIL (24 h): 0.006 mg/dL
- TC (24 h): 74.6 mg/dL
- TG (24 h): 93 mg/dL
- TP (24 h): 5.5 g/dL
